In patent US12295997B2, “Prostate neoantigens and their uses” (Janssen Biotech, Inc., priority 2020, dated 2025):

B1: P19 (peptide, listed as Homo sapiens)
chain: WTPIPVLTRWPLPHPPPWRRATSCRMARSSPSATSGSSVRRRCSSLPSWVWNLAASTRPRSTPS

Test system: CD8+ and CD4+ T cells (autologous CD3+ Pan-T cells isolated from human normal PBMCs)
Assay: Exogenous autologous normal donor restimulation assay (15-mer overlapping peptide pools on CD1c+ dendritic cells, TNFα/IFNγ flow cytometry)
Type: cell-based
Settings: 15-mer overlapping peptide pool; for Maximum Fold Change Over Background CD4+ cells / Maximum Fold Change Over Background CD8+ cells / Maximum Frequency of TNFα/IFNγ Double Positive CD4+ T cells / Maximum Frequency of TNFα/IFNγ Double Positive CD8+ T cells: Table 25; for Maximum Fold Change Over Background CD4+ cells: TNFα+IFNγ+ CD4+ T cells; for Maximum Fold Change Over Background CD4+ cells / Maximum Fold Change Over Background CD8+ cells: highest fold change over negative control across normal donors; for Maximum Fold Change Over Background CD8+ cells: TNFα+IFNγ+ CD8+ T cells; for Maximum Frequency of TNFα/IFNγ Double Positive CD4+ T cells / Maximum Frequency of TNFα/IFNγ Double Positive CD8+ T cells: highest frequency across normal donors
Method in brief: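 Readout was intracellular TNFα/IFNγ flow cytometry on live CD3+ CD8+ and CD4+ cells after day-11 peptide restimulation. Stimulators were CD1c+ dendritic cells loaded with overlapping 15-mer peptide pools (2.5–10 μg/mL), irradiated, and cultured 12 days with autologous normal-donor Pan-T cells plus IL-15/IL-2. A response counted when ≥3-fold over DMSO control and at least 0.01%.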

[1] = Table 28, additional neoantigens, highest across normal donors

Molecule | Maximum Fold Change Over Background CD4+ cells | Maximum Fold Change Over Background CD8+ cells | Maximum Frequency of TNFα/IFNγ Double Positive CD4+ T cells | Maximum Frequency of TNFα/IFNγ Double Positive CD8+ T cells | Max. Fold Change over background CD4+ TNFαINFγ double positive DP [1] | Max. Fold Change over background CD8+ TNFαINFγ double positive DP [1] | Max. Frequency of CD4+ TNFαINFγ DP [1] | Max. Frequency of CD8+ TNFαINFγ DP [1]
YEAGMTLGGKILFFLFLLLPLSPFSLIF (listed as Homo sapiens) [Neoantigen P87] | 7.86 | 9.20 | 0.110 | 0.460 |  |  |  | 
YEAGMTLGEKFRVGNCKHLKMTRP (listed as Homo sapiens) [Neoantigen P82] | 4.44 | 2.92 | 0.17 | 0.09 |  |  |  | 
SLYHREKQLIAMDSAI (listed as Homo sapiens) [Neoantigen P22] | 18.16 | 1.56 | 0.075 | 0.025 |  |  |  | 
B1 |  |  |  |  | 6.67 | 4.76 | 0.16 | 0.15
